Source: ChEMBL document CHEMBL3046698, “Synergistic application of target structure-based alignment and 3D-QSAR study of protein tyrosine phosphatase 1B (PTP1B) inhibitors” (Med Chem Res, 2011)
Several values for one entry are separate records, joined by “and”; a condition that tells them apart may be missing. Equal entries are not always repeated.

Molecular target: T1, Tyrosine-protein phosphatase non-receptor type 1 (Homo sapiens, UniProt P18031)
T1 sequence (P18031 whole entry): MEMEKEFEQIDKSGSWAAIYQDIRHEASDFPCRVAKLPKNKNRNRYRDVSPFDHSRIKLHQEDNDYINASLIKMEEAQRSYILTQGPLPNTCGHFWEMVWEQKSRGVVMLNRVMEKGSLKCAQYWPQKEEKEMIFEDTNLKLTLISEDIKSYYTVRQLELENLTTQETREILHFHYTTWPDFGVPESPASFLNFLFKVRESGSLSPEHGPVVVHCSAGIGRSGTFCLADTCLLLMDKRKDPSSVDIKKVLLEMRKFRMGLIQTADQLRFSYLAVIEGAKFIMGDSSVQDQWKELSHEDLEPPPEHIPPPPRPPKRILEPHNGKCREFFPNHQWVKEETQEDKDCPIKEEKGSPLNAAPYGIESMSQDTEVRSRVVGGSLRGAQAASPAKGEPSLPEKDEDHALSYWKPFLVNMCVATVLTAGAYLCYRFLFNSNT
Description: Inhibition of PTP1B (unknown origin)

Row | Compound | Ki
1 | CCc1cc(C[C@H](NC(C)=O)C(=O)N[C@H](CCSC)C(=O)O)ccc1N(C(=O)C(=O)O)c1ccccc1C(=O)O | 1.74 µM and 1.7 µM
2 | CC(=O)C(=O)N(c1ccccc1Cc1ccccc1)c1ccccc1C(=O)O | 24 µM
3 | CCc1cc(C[C@H](NC(C)=O)C(=O)NCCCCC(=O)NCCc2ccccc2)ccc1N(C(=O)C(=O)O)c1ccccc1C(=O)O | 3.39 µM and 3.4 µM
4 | CCc1ccccc1N(C(=O)C(C)=O)c1ccccc1C(=O)O | 60.3 µM and 60 µM
5 | CCc1cc(C[C@H](NC(C)=O)C(=O)NCc2ccc(OC)cc2)ccc1N(C(=O)C(=O)O)c1ccccc1C(=O)O | 4.79 µM and 4.7 µM
6 | CC(=O)C(=O)N(c1ccccc1C(=O)O)c1ccccc1C(C)C | 35.5 µM and 35 µM
7 | CCc1cc(C[C@H](NC(C)=O)C(=O)NCc2ccc(Cl)cc2)ccc1N(C(=O)C(=O)O)c1ccccc1C(=O)O | 1.2 µM
8 | CC(=O)C(=O)N(c1ccccc1CCO)c1ccccc1C(=O)O | 17 µM
9 | CCC(CC(=O)O)N(C(=O)C(=O)O)c1ccc(CC(NC(=O)OC(C)(C)C)C(=O)NCCCCOc2cccc(O)c2C(=O)OC)cc1 (stereo unspecified) | 1.82 µM and 1.8 µM
10 | CC(=O)C(=O)N(c1ccccc1C(=O)O)c1cccc2ccc(O)cc12 | 17 µM
11 | COC(=O)c1c(O)cccc1OCCCCNC(=O)C(Cc1ccc(N(CC(C(=O)O)c2ccccc2)C(=O)C(=O)O)cc1)NC(=O)OC(C)(C)C (stereo unspecified) | 15.1 µM and 15.2 µM
12 | COC(=O)c1c(O)cccc1OCCCCNC(=O)[C@H](Cc1ccc(OC(C(N)=O)C(=O)O)cc1)NC(=O)OC(C)(C)C (stereo partly specified) | 13.8 µM
13 | CC(=O)C(=O)N(c1ccccc1C(=O)O)c1cccc2c1CCCC2 | 74.1 µM and 74 µM
14 | CC(=O)C(=O)N(c1ccccc1/C=C/C(N)=O)c1ccccc1C(=O)O | 11 µM
15 | CC(=O)C(=O)N(c1ccccc1C(=O)O)c1cccc(C)c1C | 93.3 µM and 93 µM
16 | CC(=O)C(=O)N(c1ccc2ccccc2c1)c1ccccc1C(=O)O | 38.9 µM and 39 µM
17 | CC(=O)C(=O)N(c1ccccc1C(=O)O)c1ccccc1N1CCCCC1 | 14.1 µM and 14 µM
18 | COC(=O)c1c(O)cccc1OCCCCNC(=O)[C@H](Cc1ccc(OC(C)C(=O)O)c(C(=O)O)c1)NC(=O)[C@H](Cc1ccccc1)NC(=O)OC(C)(C)C (stereo partly specified) | 0.162 µM
19 | CCc1cc(C[C@H](NC(C)=O)C(=O)NCCCCC(=O)NC(Cc2ccccc2)C(N)=O)ccc1N(C(=O)C(=O)O)c1ccccc1C(=O)O (stereo partly specified) | 1.29 µM and 1.3 µM
20 | CC(=O)C(=O)N(c1ccccc1C(=O)O)c1cccc2ccccc12 | 24 µM
21 | COC(=O)c1c(O)cccc1OCCCCNC(=O)[C@H](Cc1ccc(OC(C(=O)O)C(=O)NC2CC2)cc1)NC(=O)OC(C)(C)C (stereo partly specified) | 8.51 µM
